Among the data in BindingDB's records for patent US12391671 (Dana-Farber Cancer Institute, 2025) are IC50 values, retold here.

What all share (test): HTRF-Based EGFR Biochemical Assay
In general terms: In TR-FRET formats the signal depends on donor and acceptor labels being close together.

In experiment [1] the target is Epidermal growth factor receptor [T790M,L858R] (Homo sapiens, UniProt P00533, L858R/T790M). The protocol: (§1) EGFR biochemical activity measurements were carried out using the homogeneous time-resolved fluorescence (HTRF) assay (Cisbio), inhibitors and DMSO normalizations were first dispensed to empty black low-volume 384-well plates (Corning) with 0300 digital liquid dispenser (HP). All reactions were carried out at room temperature and solutions were added to plates with a Multidrop Combi Reagent Dispenser (ThermoFisher). The reaction mixture (10 μL final volume) contained 1 μM tyrosine kinase peptide-biotin substrate and mutant EGFR in a reaction buffer (50 mM HEPES pH 7.0, 5 mM MgCl2, 1 mM MnCl2, 0.01% BSA, 2 mM TCEP, 0.1 mM NaVO4). Enzyme concentrations were adjusted to accommodate varying kinase activities (L858R 0.1 nM, L858R/T790M 0.02 nM). Enzyme reaction solution (2× concentrations, 5 μL) was added to 384-well plates containing compounds and incubated for 30 mins. Enzyme reactions were initiated with the addition of 5 μL of ATP to a final concentration of 100 μM and reacted for 20 mins. Reactions were quenched with the addition of 10 μL of phospho-tyrosine antibody-Europium(III) cryptate (1-to-180 volume ratio) and Streptavidin-XL665 (46.7 nM) in EDTA-containing detection buffer, then incubated at room temperature for 1 hour, and read with a PHERAstar plate reader (excitation=337 nm, emission=620 nm and 665 nm).

Experiment [2] deals with Epidermal growth factor receptor [L858R] (Homo sapiens, UniProt P00533, L858R). The protocol:
as §1

Experiment [3] concerns the target Epidermal growth factor receptor [T790M,L858R] (Homo sapiens, UniProt P00533, T790M/L858R). Here is the method:
as §1

For orientation: IC50 means the concentration at which inhibition is half-maximal.

Each structure is given as a SMILES string.

Sequence of Epidermal growth factor receptor [T790M,L858R] (Homo sapiens, UniProt P00533, L858R/T790M) (P00533 25-1210 T790M/L858R limits assumed): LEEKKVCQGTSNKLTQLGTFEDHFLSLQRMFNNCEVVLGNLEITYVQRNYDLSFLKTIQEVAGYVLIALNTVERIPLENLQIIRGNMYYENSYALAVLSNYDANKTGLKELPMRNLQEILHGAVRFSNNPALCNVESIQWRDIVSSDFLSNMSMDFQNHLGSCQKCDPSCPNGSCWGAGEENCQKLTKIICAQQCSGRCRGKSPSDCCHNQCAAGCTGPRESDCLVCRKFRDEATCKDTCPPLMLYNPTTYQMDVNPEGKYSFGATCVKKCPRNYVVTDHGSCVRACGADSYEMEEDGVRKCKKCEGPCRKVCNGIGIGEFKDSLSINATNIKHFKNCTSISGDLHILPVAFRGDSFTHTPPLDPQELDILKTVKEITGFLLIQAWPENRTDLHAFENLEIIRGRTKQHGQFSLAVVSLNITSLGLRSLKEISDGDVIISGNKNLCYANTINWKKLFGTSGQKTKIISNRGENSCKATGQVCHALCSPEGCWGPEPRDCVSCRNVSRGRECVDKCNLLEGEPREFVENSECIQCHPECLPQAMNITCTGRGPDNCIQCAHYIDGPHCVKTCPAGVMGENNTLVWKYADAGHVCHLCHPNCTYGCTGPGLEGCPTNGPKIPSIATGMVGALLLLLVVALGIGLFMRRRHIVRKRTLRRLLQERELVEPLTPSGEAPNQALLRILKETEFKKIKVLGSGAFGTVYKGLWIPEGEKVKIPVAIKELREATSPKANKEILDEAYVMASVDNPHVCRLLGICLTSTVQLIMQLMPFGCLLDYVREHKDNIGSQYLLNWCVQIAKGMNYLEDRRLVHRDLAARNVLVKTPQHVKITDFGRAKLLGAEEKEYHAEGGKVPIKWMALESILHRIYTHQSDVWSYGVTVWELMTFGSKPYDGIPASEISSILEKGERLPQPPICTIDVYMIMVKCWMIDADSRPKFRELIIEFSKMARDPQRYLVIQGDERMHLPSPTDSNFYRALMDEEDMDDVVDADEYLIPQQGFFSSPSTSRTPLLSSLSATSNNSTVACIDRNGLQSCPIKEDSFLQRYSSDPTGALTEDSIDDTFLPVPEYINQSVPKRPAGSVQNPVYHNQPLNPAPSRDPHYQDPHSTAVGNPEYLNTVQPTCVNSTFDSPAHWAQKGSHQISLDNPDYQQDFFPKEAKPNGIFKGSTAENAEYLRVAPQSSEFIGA
Sequence of Epidermal growth factor receptor [L858R] (P00533 25-1210 L858R limits assumed): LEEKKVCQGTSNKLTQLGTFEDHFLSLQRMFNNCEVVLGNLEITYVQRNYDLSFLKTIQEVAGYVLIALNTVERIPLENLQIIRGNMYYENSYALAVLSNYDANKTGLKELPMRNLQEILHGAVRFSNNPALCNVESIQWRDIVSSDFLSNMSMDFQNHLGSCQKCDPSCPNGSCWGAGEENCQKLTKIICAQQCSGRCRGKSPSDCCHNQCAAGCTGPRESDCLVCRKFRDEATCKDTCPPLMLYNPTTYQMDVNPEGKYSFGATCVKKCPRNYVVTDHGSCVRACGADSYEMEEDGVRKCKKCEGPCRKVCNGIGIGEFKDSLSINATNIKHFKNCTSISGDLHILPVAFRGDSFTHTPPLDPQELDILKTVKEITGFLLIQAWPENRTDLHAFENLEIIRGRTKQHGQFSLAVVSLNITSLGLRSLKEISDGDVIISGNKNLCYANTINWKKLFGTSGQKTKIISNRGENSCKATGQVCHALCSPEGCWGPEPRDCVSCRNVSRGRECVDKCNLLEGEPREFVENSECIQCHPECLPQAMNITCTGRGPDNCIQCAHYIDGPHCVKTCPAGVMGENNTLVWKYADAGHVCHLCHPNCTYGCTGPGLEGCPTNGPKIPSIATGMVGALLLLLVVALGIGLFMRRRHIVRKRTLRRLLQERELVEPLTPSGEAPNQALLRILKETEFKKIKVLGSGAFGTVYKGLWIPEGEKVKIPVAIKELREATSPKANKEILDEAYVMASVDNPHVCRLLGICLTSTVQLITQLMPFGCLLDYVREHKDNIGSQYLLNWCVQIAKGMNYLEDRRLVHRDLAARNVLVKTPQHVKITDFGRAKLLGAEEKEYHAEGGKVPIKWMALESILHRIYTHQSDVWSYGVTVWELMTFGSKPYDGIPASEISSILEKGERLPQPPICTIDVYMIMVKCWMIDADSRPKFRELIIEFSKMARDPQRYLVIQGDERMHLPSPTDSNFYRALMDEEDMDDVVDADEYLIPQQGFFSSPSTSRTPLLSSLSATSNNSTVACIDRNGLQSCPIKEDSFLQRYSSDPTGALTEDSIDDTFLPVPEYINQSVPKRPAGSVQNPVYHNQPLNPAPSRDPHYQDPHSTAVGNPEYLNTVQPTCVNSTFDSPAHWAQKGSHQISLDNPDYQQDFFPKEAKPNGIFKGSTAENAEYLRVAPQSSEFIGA
Sequence of Epidermal growth factor receptor [T790M,L858R] (Homo sapiens, UniProt P00533, T790M/L858R) (P00533 25-1210 T790M/L858R limits assumed): as the sequence (P00533 25-1210 T790M/L858R limits assumed) above

Regarding `CN1CCC(c2ccc(-c3ccc4c(c3)C(=O)N(C(c3nc5ccccc5[nH]3)c3cccc(Cl)c3O)C4)cc2)CC1` (stereo not drawn) [US12391671, Compound 043], the figures for the IC50 in experiment [1] and in experiment [2] were 73 nM and 49 nM, respectively.
Taken in the same sequence, the figures for `O=C1c2cc(-c3ccc(N4CCNCC4)cc3)ccc2CN1C(c1nc2ccccc2[nH]1)c1cc(F)ccc1O` (stereo not drawn) [US12391671, Compound 021] were 2 nM and 6 nM.
Regarding `CC1=CNC([C@H](c2cc(F)ccc2O)N2CC3=CC=C(c4ccc(C5CCN(C)CC5)cc4)C(F)C3C2=O)N1` (stereo partly drawn) [US12391671, Compound 094], the figures for the IC50 in experiment [3] and in experiment [2] were 2 nM and 1 nM, respectively.
Consider `CN1CCC(c2ccc(-c3ccc4c(c3F)C(=O)N(C(c3nc5ccccc5[nH]3)c3cc(F)ccc3O)C4)cc2)CC1` (stereo not drawn) [US12391671, Compound 032], for which the results for the IC50 in experiment [1] and in experiment [2] were 0.3 nM and 2 nM, respectively.
